Measurements as given in the NIST ThermoML archive (doi:10.1016/j.jct.2013.03.013).
Values joined by “and” are separate entries in the source; they are usually repeats but may differ in a detail not shown here. Equal entries are not always repeated.

Conditions: Liquid, Vibrating wire viscometry

FCC(F)(F)F [1,1,1,2-tetrafluoroethane]
viscosity
Conditions	1000 kPa	2000 kPa	3000 kPa	5000 kPa	10000 kPa	15000 kPa	20000 kPa	25000 kPa	30000 kPa
253.14 K	0.3564 mPa·s	–	–	0.3729 mPa·s	0.3937 mPa·s	0.4141 mPa·s	0.4329 mPa·s	0.4553 mPa·s	0.4776 mPa·s
253.16 K	–	–	0.3626 mPa·s	–	0.3914 mPa·s	–	–	–	–
273.15 K	0.2713 mPa·s	–	0.2791 mPa·s	0.2873 mPa·s	0.3052 mPa·s and 0.3031 mPa·s	0.3211 mPa·s	0.3387 mPa·s	0.357 mPa·s	0.3759 mPa·s
293.15 K	0.2115 mPa·s	–	0.2177 mPa·s	0.2227 mPa·s	0.2398 mPa·s and 0.2412 mPa·s	0.2556 mPa·s	0.2725 mPa·s	0.287 mPa·s	0.3023 mPa·s
313.14 K	–	0.1653 mPa·s	0.1693 mPa·s	0.1758 mPa·s	0.1918 mPa·s and 0.1929 mPa·s	0.2068 mPa·s	0.2228 mPa·s	0.236 mPa·s	0.2501 mPa·s
333.16 K	–	0.1247 mPa·s	0.1296 mPa·s	0.1373 mPa·s	0.1537 mPa·s and 0.1543 mPa·s	0.1703 mPa·s	0.1839 mPa·s	0.1966 mPa·s	0.2089 mPa·s
353.15 K	–	–	–	0.1034 mPa·s	0.1246 mPa·s	–	–	–	–
353.16 K	–	–	0.0916 mPa·s	0.1032 mPa·s	0.124 mPa·s	0.1391 mPa·s	0.1535 mPa·s	0.1657 mPa·s	0.1779 mPa·s

C=C(F)C(F)(F)F [2,3,3,3-tetrafluoro-1-propene]
Conditions	viscosity [mPa·s]
243.16 K, 99 kPa	0.2892
243.16 K, 1000 kPa	0.2913
243.16 K, 3000 kPa	0.2982
243.16 K, 5000 kPa	0.3049
243.16 K, 10000 kPa	0.3212
243.16 K, 15000 kPa	0.3397
243.16 K, 20000 kPa	0.3572
243.16 K, 25000 kPa	0.3748
243.16 K, 30000 kPa	0.3927
253.16 K, 151 kPa	0.2554
253.16 K, 1000 kPa	0.258
253.16 K, 3000 kPa	0.2638
253.16 K, 5000 kPa	0.2708
253.16 K, 10000 kPa	0.2877
253.16 K, 15000 kPa	0.3038
253.16 K, 20000 kPa	0.3201
253.16 K, 25000 kPa	0.3362
253.16 K, 30000 kPa	0.3517
263.16 K, 222 kPa	0.2265
263.16 K, 1000 kPa	0.229
263.16 K, 3000 kPa	0.2355
263.16 K, 5000 kPa	0.242
263.16 K, 10000 kPa	0.2581
263.16 K, 15000 kPa	0.2731
263.16 K, 20000 kPa	0.2894
263.16 K, 25000 kPa	0.3035
263.16 K, 30000 kPa	0.3178
273.15 K, 316 kPa	0.2019
273.15 K, 1000 kPa	0.2033
273.15 K, 3000 kPa	0.21
273.15 K, 5000 kPa	0.2162
273.15 K, 10000 kPa	0.2313
273.15 K, 15000 kPa	0.2457
273.15 K, 20000 kPa	0.2601
273.15 K, 25000 kPa	0.2744
273.15 K, 30000 kPa	0.2874
283.14 K, 438 kPa	0.1796
283.14 K, 1000 kPa	0.1815
283.14 K, 3000 kPa	0.1873
283.14 K, 5000 kPa	0.194
283.14 K, 10000 kPa	0.2079
283.14 K, 15000 kPa	0.2222
283.14 K, 20000 kPa	0.2356
283.14 K, 25000 kPa	0.2487
283.14 K, 30000 kPa	0.262
293.15 K, 592 kPa	0.1612
293.15 K, 1000 kPa	0.1636
293.15 K, 3000 kPa	0.169
293.15 K, 5000 kPa	0.1755
293.15 K, 10000 kPa	0.1885
293.15 K, 15000 kPa	0.2018
293.15 K, 20000 kPa	0.2152
293.15 K, 25000 kPa	0.2287
293.15 K, 30000 kPa	0.2414
303.15 K, 784 kPa	0.1425
303.15 K, 1000 kPa	0.1434
303.15 K, 3000 kPa	0.149
303.15 K, 5000 kPa	0.1554
303.15 K, 10000 kPa	0.1696
303.15 K, 15000 kPa	0.1834
303.15 K, 20000 kPa	0.1965
303.15 K, 25000 kPa	0.2092
303.15 K, 30000 kPa	0.2215
313.14 K, 1019 kPa	0.1259
313.14 K, 3000 kPa	0.1324
313.14 K, 5000 kPa	0.1392
313.14 K, 10000 kPa	0.1543
313.14 K, 15000 kPa	0.1681
313.14 K, 20000 kPa	0.1808
313.14 K, 25000 kPa	0.1929
313.14 K, 30000 kPa	0.2046
323.16 K, 1303 kPa	0.1103
323.16 K, 3000 kPa	0.1169
323.16 K, 5000 kPa	0.1239
323.16 K, 10000 kPa	0.1396
323.16 K, 15000 kPa	0.1536
323.16 K, 20000 kPa	0.1664
323.16 K, 25000 kPa	0.1783
323.16 K, 30000 kPa	0.1893
333.16 K, 1643 kPa	0.0965
333.16 K, 3000 kPa	0.1031
333.16 K, 5000 kPa	0.1108
333.16 K, 10000 kPa	0.127
333.16 K, 15000 kPa	0.141
333.16 K, 20000 kPa	0.1537
333.16 K, 25000 kPa	0.1656
333.16 K, 30000 kPa	0.1762
343.16 K, 2046 kPa	0.0832
343.16 K, 3000 kPa	0.0885
343.16 K, 5000 kPa	0.0976
343.16 K, 10000 kPa	0.115
343.16 K, 15000 kPa	0.1291
343.16 K, 20000 kPa	0.1417
343.16 K, 25000 kPa	0.1534
343.16 K, 30000 kPa	0.1644
353.16 K, 2521 kPa	0.0685
353.16 K, 3000 kPa	0.0731
353.16 K, 5000 kPa	0.0846
353.16 K, 10000 kPa	0.1035
353.16 K, 15000 kPa	0.1189
353.16 K, 20000 kPa	0.1314
353.16 K, 25000 kPa	0.1424
353.16 K, 30000 kPa	0.1527
363.16 K, 3081 kPa	0.0521
363.16 K, 5000 kPa	0.0732
363.16 K, 10000 kPa	0.093
363.16 K, 15000 kPa	0.109
363.16 K, 20000 kPa	0.1211
363.16 K, 25000 kPa	0.1322
363.16 K, 30000 kPa	0.1429
